Reference: ChEMBL document CHEMBL5584243, “Discovery of JNJ-74856665: A Novel Isoquinolinone DHODH Inhibitor for the Treatment of AML” (J Med Chem, 2024)
≈ marks a conversion by molar mass, not a printed value.

Assays:
[1] = target: Dihydroorotate dehydrogenase (quinone), mitochondrial (Homo sapiens, UniProt Q02127); experiment: Inhibition of recombinant human DHODH followed by DHO substrate by DCIP dye absorbance based spectrophotometric analysis
[2] = test system: MOLM-13; experiment: Antiproliferative activity against human MOLM-13 cells assessed as inhibition of cell growth incubated for 72 hrs by CellTiter-Glo assay; assay type: functional, cell-based; conditions: MOLM-13, 72 h
[3] = Equilibrium solubility of compound in PBS at pH 7 incubated for 2 to 5 days by HPLC analysis; assay type: physicochemical; conditions: time 2-5 day
[4] = target: T1, Aryl hydrocarbon receptor (Homo sapiens, UniProt P35869); experiment: Activation of AhR (unknown origin) at 1 to 10 uM; conditions: dose 1-10 µM
T1 sequence (P35869 whole entry): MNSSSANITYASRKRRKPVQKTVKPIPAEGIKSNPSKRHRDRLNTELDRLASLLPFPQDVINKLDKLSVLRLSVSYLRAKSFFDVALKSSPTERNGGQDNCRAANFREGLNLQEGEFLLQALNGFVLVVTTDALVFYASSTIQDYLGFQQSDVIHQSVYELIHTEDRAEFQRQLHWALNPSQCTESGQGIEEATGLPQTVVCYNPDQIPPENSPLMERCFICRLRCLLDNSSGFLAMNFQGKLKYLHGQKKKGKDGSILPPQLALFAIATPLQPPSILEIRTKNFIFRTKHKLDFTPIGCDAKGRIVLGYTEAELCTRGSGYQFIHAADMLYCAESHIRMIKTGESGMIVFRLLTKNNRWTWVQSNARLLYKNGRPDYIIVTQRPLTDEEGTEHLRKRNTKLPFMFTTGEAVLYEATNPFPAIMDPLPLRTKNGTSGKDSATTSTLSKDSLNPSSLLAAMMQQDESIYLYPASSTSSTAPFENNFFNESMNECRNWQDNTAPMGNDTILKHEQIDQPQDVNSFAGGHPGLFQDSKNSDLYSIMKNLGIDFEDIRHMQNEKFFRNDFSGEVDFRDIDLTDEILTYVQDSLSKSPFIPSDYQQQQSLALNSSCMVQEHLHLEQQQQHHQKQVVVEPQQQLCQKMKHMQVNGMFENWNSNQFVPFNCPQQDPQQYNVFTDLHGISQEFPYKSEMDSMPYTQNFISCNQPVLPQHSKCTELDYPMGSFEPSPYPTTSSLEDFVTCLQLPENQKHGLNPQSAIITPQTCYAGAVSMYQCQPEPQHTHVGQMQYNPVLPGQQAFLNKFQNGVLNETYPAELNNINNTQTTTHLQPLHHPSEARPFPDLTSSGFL

[5] = Passive permeability across apical to basolateral side in dog MDCK-MDR1 cells; assay type: ADME, cell-based, Canis lupus familiaris
[6] = Metabolic stability in human liver microsomes assessed as half life incubated upto 60 mins in presence of NADPH by LC-MS/MS analysis; assay type: ADME, Microsome
[7] = Metabolic stability in mouse liver microsomes assessed as half life incubated upto 60 mins in presence of NADPH by LC-MS/MS analysis; assay type: ADME, Microsome
[8] = Equilibrium solubility of compound in PBS at pH 2 incubated for 2 to 5 days by HPLC analysis; assay type: physicochemical; conditions: time 2-5 day; for solubility thermodynamic: PBS
[9] = Plasma protein binding in human at 1 uM incubated for 6.5 hrs by LC-MS/MS analysis; assay type: ADME, cell-free; conditions: read-out: PPB (converted)
[10] = Plasma protein binding in C57BL mouse at 1 uM incubated for 6.5 hrs by LC-MS/MS analysis; assay type: ADME, cell-free; conditions: read-out: PPB (converted)
[11] = Volume of distribution at steady state in C57BL mouse at 2 mg/kg,iv measured upto 24 hrs by LC-MS/MS analysis; assay type: ADME, organism-based; conditions: in vivo, read-out: Vdss
[12] = Half life in C57BL mouse at 2 mg/kg,iv measured upto 24 hrs by LC-MS/MS analysis; assay type: ADME, organism-based; conditions: in vivo
[13] = Cmax in C57BL mouse at […] measured upto 24 hrs by LC-MS/MS analysis; assay type: ADME, organism-based; conditions: in vivo
[14] = Tmax in C57BL mouse at […] measured upto 24 hrs by LC-MS/MS analysis; assay type: ADME, organism-based; conditions: in vivo
[15] = AUC (0 to infinity) in C57BL mouse at 2 mg/kg,iv measured upto 24 hrs by LC-MS/MS analysis; assay type: ADME, organism-based; conditions: in vivo
[16] = Oral bioavailability in C57BL mouse at 10 mg/kg measured upto 24 hrs by LC-MS/MS analysis; assay type: ADME, organism-based; conditions: in vivo
[17] = Equilibrium solubility of compound in SGF at pH 1 using amorphous form of sample incubated for 2 to 5 days by HPLC analysis; assay type: ADME; conditions: time 2-5 day
[18] = Equilibrium solubility of compound in FaSSIF at pH 6.5 using amorphous form of sample incubated for 2 to 5 days by HPLC analysis; assay type: ADME; conditions: time 2-5 day
[19] = test system: MOLM-13; experiment: Antitumor activity against human MOLM-13 cells xenografted in NSG mouse assessed as tumor growth inhibition at po administrated for 21 days; assay type: functional, organism-based; conditions: time 21.0 day
[20] = Lipophilicity, logD of compound; assay type: physicochemical; conditions: octanol/water
[21] = Equilibrium solubility of compound in SGF at pH 1 using crystalline form incubated for 2 to 5 days by HPLC analysis; assay type: ADME; conditions: time 2-5 day
[22] = Equilibrium solubility of compound in FaSSIF at pH 6.5 using crystalline form incubated for 2 to 5 days by HPLC analysis; assay type: ADME; conditions: time 2-5 day
[23] = test system: MOLM-13; experiment: Antitumor activity against human MOLM-13 cells xenografted in NSG mouse assessed as tumor growth inhibition at 0.625 to 2.5 mg/kg,po administrated for 21 days relative to control; assay type: functional; conditions: dose 0.625-2.5 mg/kg, time 21 day

Chain of Dihydroorotate dehydrogenase (quinone), mitochondrial (Q02127 whole entry): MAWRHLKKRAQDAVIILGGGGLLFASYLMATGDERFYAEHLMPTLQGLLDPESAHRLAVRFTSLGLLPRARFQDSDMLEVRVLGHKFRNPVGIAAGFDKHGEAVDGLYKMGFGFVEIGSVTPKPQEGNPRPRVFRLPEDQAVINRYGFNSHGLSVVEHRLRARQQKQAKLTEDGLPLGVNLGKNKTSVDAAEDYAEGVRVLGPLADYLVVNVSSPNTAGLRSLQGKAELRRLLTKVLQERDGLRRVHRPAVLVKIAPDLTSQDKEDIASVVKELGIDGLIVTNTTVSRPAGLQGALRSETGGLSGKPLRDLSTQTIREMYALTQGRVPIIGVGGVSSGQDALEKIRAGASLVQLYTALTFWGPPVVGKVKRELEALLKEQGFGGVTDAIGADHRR

| IC50 [2] [nM] | solubility thermodynamic [3] [µM] | Papp A→B [5] [×10⁻⁶ cm/s] | half-life [6] [min] | half-life [7] [min] | solubility thermodynamic [8] [µM] | Compound | further results |
| --- | --- | --- | --- | --- | --- | --- | --- |
| 0.16 | < 4 | – | – | – | – | CCn1c(CO)nn(-c2nc(OC(C)C(F)(F)F)c(C(=O)Nc3c(F)cccc3Cl)cc2F)c1=O (stereo unspecified) | IC50 [1]: 0.2 nM |
| – | – | – | – | – | – | Cc1oncc1C(=O)Nc1ccc(C(F)(F)F)cc1 [LEFLUNOMIDE] | Activity [4]: Active |
| 1.8 | 157 (≈ 70.7 µg/mL) | 37.3 | > 180 | 110 | 193 (≈ 86.9 µg/mL) | CCc1ccccc1-n1cc(C(C)C)c2cc(-n3nc(CO)n(CC)c3=O)c(F)cc2c1=O | – |
| 2.4 | 21 (≈ 10.5 µg/mL) | 42.6 | > 180 | > 180 | 78 (≈ 39.2 µg/mL) | CCn1c(CO)nn(-c2cc3c(C(C)C)cn(-c4c(C)cnc(OC)c4Cl)c(=O)c3cc2F)c1=O | fraction unbound at 6.5 h, 1 µM [9]: 0.059; fraction unbound at 6.5 h, 1 µM [10]: 0.038; Vd [11]: 2.1 L/kg; half-life [12]: 420 min; Cmax [13]: 4100 ng/mL; Tmax [14]: 1.5 h; AUC [15]: 82.5 µg·h/mL; bioavailability [16]: 109%; solubility thermodynamic [17]: < 5 µg/mL; solubility thermodynamic [18]: 16 µg/mL (≈ 31.9 µM) |
| 1 | 20 (≈ 9.05 µg/mL) | 25.1 | > 180 | > 180 | 19 (≈ 8.6 µg/mL) | CCn1c(CO)nn(-c2cc3c(C(C)C)cn(-c4ccccc4OC)c(=O)c3cc2F)c1=O | – |
| 0.69 | 24 (≈ 10.9 µg/mL) | 47.4 | > 180 | > 180 | 23 (≈ 10.5 µg/mL) | CCn1c(CO)nn(-c2cc3c(C(C)C)cn(-c4c(C)cccc4F)c(=O)c3cc2F)c1=O | – |
| 0.44 | – | – | – | – | – | CCn1c(CO)nn(-c2nc3c(C(C)C)cn(-c4c(F)cccc4Cl)c(=O)c3cc2F)c1=O | – |
| 1.1 | – | – | – | – | – | C=C(C)c1cn(-c2c(F)cccc2Cl)c(=O)c2cc(F)c(-n3nc(CO)n(CC)c3=O)nc12 | – |
| 2.1 | 19 (≈ 8.37 µg/mL) | 30.1 | > 180 | > 180 | 19 (≈ 8.37 µg/mL) | CCn1c(CO)nn(-c2cc3c(C(C)C)cn(-c4ccccc4F)c(=O)c3cc2F)c1=O | – |
| 0.59 | 180 (≈ 88.3 µg/mL) | 20.3 | > 180 | > 180 | 164 (≈ 80.4 µg/mL) | CCn1c(CO)nn(-c2cc3c([C@H](C)C(F)(F)F)cn(-c4ccccc4C)c(=O)c3cc2F)c1=O | – |
| 0.22 | < 4 | 24.5 | > 180 | > 180 | < 4 | CCn1c(CO)nn(-c2cc3c(C(C)C)cn(-c4c(F)cccc4Cl)c(=O)c3cc2F)c1=O | Activity [19]: Dose-Dependent Effect; logD [20]: 3.1; solubility thermodynamic [21]: < 5 µg/mL; solubility thermodynamic [22]: < 5 µg/mL; fraction unbound at 6.5 h, 1 µM [9]: 0.042; fraction unbound at 6.5 h, 1 µM [10]: 0.024; Vd [11]: 1.3 L/kg; half-life [12]: 306 min; Cmax [13]: 8200 ng/mL; Tmax [14]: 0.83 h; AUC [15]: 71.8 µg·h/mL; bioavailability [16]: 135%; TGI [23]: >80% |
| 0.28 | 155 (≈ 70.8 µg/mL) | 50.7 | > 180 | > 180 | 153 (≈ 69.9 µg/mL) | CCn1c(CO)nn(-c2cc3c(C(C)C)cn(-c4ccccc4Cl)c(=O)c3cc2F)c1=O | – |
| 0.86 | 30 (≈ 13.6 µg/mL) | 45.9 | > 180 | > 180 | 30 (≈ 13.6 µg/mL) | CCn1c(CO)nn(-c2cc3c(C(C)C)cn(-c4cc(F)ccc4C)c(=O)c3cc2F)c1=O | – |
| 0.63 | 39 (≈ 19.1 µg/mL) | 40.4 | > 180 | > 180 | – | CCn1c(CO)nn(-c2cc3c(C(C)C)cn(-c4ccccc4C(F)(F)F)c(=O)c3cc2F)c1=O | solubility ([8]; buffer): Not Active; fraction unbound at 6.5 h, 1 µM [9]: 0.063; fraction unbound at 6.5 h, 1 µM [10]: 0.067; Vd [11]: 1.2 L/kg; half-life [12]: 258 min; Cmax [13]: 5700 ng/mL; Tmax [14]: 1.3 h; AUC [15]: 71.1 µg·h/mL; bioavailability [16]: 127%; solubility thermodynamic [17]: 17 µg/mL (≈ 34.7 µM); solubility thermodynamic [18]: 97 µg/mL (≈ 198 µM) |
| 0.42 | 181 (≈ 88.8 µg/mL) | < 41 | > 180 | > 180 | 184 (≈ 90.2 µg/mL) | CCn1c(CO)nn(-c2cc3c([C@@H](C)C(F)(F)F)cn(-c4ccccc4C)c(=O)c3cc2F)c1=O | logD [20]: 2.6; fraction unbound at 6.5 h, 1 µM [9]: 0.1; fraction unbound at 6.5 h, 1 µM [10]: 0.093; Vd [11]: 1.3 L/kg; half-life [12]: 240 min; Cmax [13]: 4500 ng/mL; Tmax [14]: 1.5 h; AUC [15]: 39 µg·h/mL; bioavailability [16]: 98%; solubility thermodynamic [17]: < 5 µg/mL; solubility thermodynamic [18]: 41 µg/mL (≈ 83.6 µM) |
| 0.67 | 266 (≈ 121 µg/mL) | 48.2 | > 180 | > 180 | 25 (≈ 11.4 µg/mL) | CCn1c(CO)nn(-c2cc3c(C(C)C)cn(-c4ccc(F)cc4C)c(=O)c3cc2F)c1=O | logD [20]: 2.7 |
| 3.1 | – | – | – | – | – | CCn1c(CO)nn(-c2cc3c(C4(C)CC4)cn(-c4c(F)cccc4Cl)c(=O)c3cc2F)c1=O | – |
| 0.56 | 11 (≈ 5.2 µg/mL) | 39 | 179 | > 180 | 228 (≈ 108 µg/mL) | CCn1c(CO)nn(-c2cc3c(C(C)C)cn(-c4ccccc4C(F)F)c(=O)c3cc2F)c1=O | – |
| 5.6 | 189 (≈ 85.9 µg/mL) | 23.5 | > 180 | > 180 | 235 (≈ 107 µg/mL) | CCn1c(CO)nn(-c2cc3c(C(C)C)cn(-c4cccc(F)c4C)c(=O)c3cc2F)c1=O | – |
